Results: patent US12172983B2, “EGFR inhibitors” (Blueprint Medicines Corporation, priority 2019, dated 2024)

Columns and labels:
[1] = target: T1, EGFR (L858R T790M C797S) (Homo sapiens, UniProt P00533, C797S/L858R/T790M); test: Biochemical EGFR inhibition assay (Caliper mobility shift), EGFR LRTMCS mutant; conditions: inhibitory activity against EGFR LRTMCS mutant; apparent IC50; read-out: Ext Enz LRTMCS
T1 construct: purchased SignalChem E10-122VG
In short: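 Apparent IC50s were derived by plotting percent activity against the log of compound concentration. Activity was measured as phosphopeptide electrophoretically separated from substrate, after reactions at room temperature reached 10% to 20% phosphorylation and were halted with 35 mM EDTA.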

[2] = system: phosphorylation of EGFR (Tyr1068) in NCI-H1975 cell line that harbors the EGFR L858R T790M mutations; test: NCI-H1975 pEGFR AlphaLISA assay; assay type: cell-based; conditions: Homo sapiens, NCI-H1975, inhibition of phosphorylation of mutant EGFR in NCI-H1975 cells; 4-5 hours incubation; read-out: Ext pEGFR H1975
In short: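 NCI-H1975 cells (EGFR L858R/T790M) seeded overnight, then treated with compound for 4-5 h at 37 °C/5% CO2. After lysis, p-EGFR (Tyr1068) quantified by AlphaLISA SureFire Ultra with acceptor then donor beads; IC50 fitted from percent inhibition versus log concentration.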

T1 sequence (P00533 25-1210 T790M/C797S/L858R): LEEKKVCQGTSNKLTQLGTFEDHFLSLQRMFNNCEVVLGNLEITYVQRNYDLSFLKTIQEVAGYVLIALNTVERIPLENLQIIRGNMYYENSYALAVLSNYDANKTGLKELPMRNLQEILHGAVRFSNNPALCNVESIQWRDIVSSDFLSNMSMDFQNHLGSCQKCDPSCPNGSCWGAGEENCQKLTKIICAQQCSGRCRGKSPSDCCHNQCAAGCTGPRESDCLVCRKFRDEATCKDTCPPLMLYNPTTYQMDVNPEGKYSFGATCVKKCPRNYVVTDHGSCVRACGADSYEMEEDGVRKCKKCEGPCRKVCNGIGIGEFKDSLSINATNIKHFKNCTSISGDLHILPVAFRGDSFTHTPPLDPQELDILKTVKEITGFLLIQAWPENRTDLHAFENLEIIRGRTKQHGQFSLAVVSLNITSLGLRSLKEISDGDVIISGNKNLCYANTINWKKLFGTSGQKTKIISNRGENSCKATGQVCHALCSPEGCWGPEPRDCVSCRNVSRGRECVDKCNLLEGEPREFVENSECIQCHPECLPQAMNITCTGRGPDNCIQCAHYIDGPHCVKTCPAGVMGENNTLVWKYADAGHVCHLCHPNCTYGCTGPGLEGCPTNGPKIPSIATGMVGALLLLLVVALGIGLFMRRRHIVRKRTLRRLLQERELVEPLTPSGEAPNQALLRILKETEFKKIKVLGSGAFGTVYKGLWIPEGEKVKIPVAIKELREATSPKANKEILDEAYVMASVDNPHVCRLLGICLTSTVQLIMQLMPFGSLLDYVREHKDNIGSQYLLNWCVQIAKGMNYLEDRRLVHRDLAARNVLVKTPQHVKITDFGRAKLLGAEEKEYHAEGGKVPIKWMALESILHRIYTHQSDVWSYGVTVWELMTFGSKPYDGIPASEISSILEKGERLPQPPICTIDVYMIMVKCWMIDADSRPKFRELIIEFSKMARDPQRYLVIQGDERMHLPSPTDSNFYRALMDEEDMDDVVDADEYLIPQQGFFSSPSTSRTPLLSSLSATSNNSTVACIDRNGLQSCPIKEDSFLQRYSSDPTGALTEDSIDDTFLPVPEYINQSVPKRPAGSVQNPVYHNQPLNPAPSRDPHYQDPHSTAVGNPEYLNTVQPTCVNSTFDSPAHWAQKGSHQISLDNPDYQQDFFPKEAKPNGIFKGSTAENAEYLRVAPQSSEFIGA

IC50 [1] | IC50 [2] | Structure (SMILES)
≤ 15 nM | ≤ 10 nM | CCS(=O)(=O)C[C@H]1CN(c2cnc(C(C)C)c3cc(Nc4ccnc(N5CC[C@@](C)(O)C(F)(F)C5)n4)ncc23)[C@@H]1C (single isomer, unassigned) [Compound 231, (4R)-1-[4-({8-[(2R,3S)-3-[(ethanesulfonyl)methyl]-2-methylazetidin-1-yl]-5-(propan-2-yl)-2,6-naphthyridin-3-yl}amino)pyrimidin-2-yl]-3,3-difluoro-4-methylpiperidin-4-ol or (4S)-1-[4-({8-[(2R,3S)-3-[(ethanesulfonyl)methyl]-2-methylazetidin-1-yl]-5-(propan-2-yl)-2,6-naphthyridin-3-yl}amino)pyrimidin-2-yl]-3,3-difluoro-4-methylpiperidin-4-ol]
≤ 15 nM | ≤ 10 nM | CC(C)c1ccc(N2CC(CS(C)(=O)=O)C2)c2cnc(Nc3ccnc(N4CC[C@H](OCCO)[C@H](F)C4)n3)cc12 [Compound 290, 2-{[(3R,4S)-3-fluoro-1-[4-({8-[3-(methanesulfonylmethyl)azetidin-1-yl]-5-(propan-2-yl)isoquinolin-3-yl}amino)pyrimidin-2-yl]piperidin-4-yl]oxy}ethan-1-ol]
≤ 15 nM | ≤ 10 nM | CO[C@@H]1CCN(c2nccc(Nc3cc4c(C(C)C)cnc(N5C[C@H](CS(C)(=O)=O)[C@H]5C)c4cn3)n2)C[C@@H]1F [Compound 132, N-{2-[(3S,4R)-3-fluoro-4-methoxypiperidin-1-yl]pyrimidin-4-yl}-8-[(2R,3S)-3-(methanesulfonylmethyl)-2-methylazetidin-1-yl]-5-(propan-2-yl)-2,7-naphthyridin-3-amine]
≤ 15 nM | 20.1 to 30 nM | CC(C)c1ccc(N2CC(CS(C)(=O)=O)C2)c2cnc(Nc3ccnc(N4CCC5(CC4)OCCO5)n3)cc12 [Compound 88, N-(2-{1,4-dioxa-8-azaspiro[4.5]decan-8-yl}pyrimidin-4-yl)-8-[3-(methanesulfonylmethyl)azetidin-1-yl]-5-(propan-2-yl)isoquinolin-3-amine]
≤ 15 nM | 30.1 to 50 nM | CC(CF)c1cnc(N2CC(CS(C)(=O)=O)C2)c2cnc(Nc3ccnc(N4CC[C@@H](O)[C@@](C)(F)C4)n3)cc12 (single isomer, unassigned) [Compound 163]
≤ 15 nM | 20.1 to 30 nM | CCOc1ccc(N2CC(CS(C)(=O)=O)C2)c2cnc(Nc3ccnc(N4CC[C@@H](O)[C@@](C)(F)C4)n3)cc12 (single isomer, unassigned) [Compound 78]
≤ 15 nM | ≤ 10 nM | CC(C)c1cnc(N2CC(CS(=O)(=O)C(F)F)C2)c2cnc(Nc3ccnc(N4CC[C@@H](O)[C@@](C)(F)C4)n3)cc12 (single isomer, unassigned) [Compound 220]
≤ 15 nM | ≤ 10 nM | CCS(=O)(=O)C[C@H]1CN(c2ncc(C(C)C)c3cc(Nc4ccnc(N5CC[C@@H](OC)[C@@H](O)C5)n4)ncc23)[C@@H]1C (single isomer, unassigned) [Compound 178]
≤ 15 nM | ≤ 10 nM | [2H]C([2H])([2H])O[C@@H]1CCN(c2nccc(Nc3cc4c(C(C)C)cnc(N5CC(CS(C)(=O)=O)C5)c4cn3)n2)C[C@@H]1F [Compound 264, N-{2-[(3S,4R)-3-fluoro-4-(^2H3)methoxypiperidin-1-yl]pyrimidin-4-yl}-8-[3-(methanesulfonylmethyl)azetidin-1-yl]-5-(propan-2-yl)-2,7-naphthyridin-3-amine]
≤ 15 nM | ≤ 10 nM | CO[C@H]1CCN(c2nccc(Nc3cc4c(C(C)C)ccc(N5C[C@H](CS(C)(=O)=O)[C@H]5C)c4cn3)n2)C[C@@H]1N (single isomer, unassigned) [Compound 89]
≤ 15 nM | ≤ 10 nM | CCS(=O)(=O)C[C@H]1CN(c2cnc(C(C)C)c3cc(Nc4ccnc(N5CC[C@@](C)(O)[C@@H](F)C5)n4)ncc23)[C@@H]1C (single isomer, unassigned) [Compound 194]
